Values quoted from earlier work, collected in patent US9937154B2, “Use of telmisartan to prevent and treat graft versus host disease and other alloimmune and autoimmune diseases” (Hackensack University Medical Center, priority 2015, dated 2018).
Where two headings read alike, the source gives them in different places.

Key:
[1] = tested on: patients treated with MICARDIS; conditions: cited from earlier work
[2] = tested on: Tregs:autoreactive Th17 cells; conditions: cited from earlier work
rat colitis = conditions: chemically induced acute colitis, cited from earlier work
[3] = cited from earlier work
[4] = 80 or 160 mg per day; cited from earlier work
cytochrome P450 enzymes = conditions: cited from earlier work
CYP2C19 = CYP2C19 (Homo sapiens, UniProt P33261); conditions: in vitro; cited from earlier work
CYP2C19, sequence (P33261 whole entry): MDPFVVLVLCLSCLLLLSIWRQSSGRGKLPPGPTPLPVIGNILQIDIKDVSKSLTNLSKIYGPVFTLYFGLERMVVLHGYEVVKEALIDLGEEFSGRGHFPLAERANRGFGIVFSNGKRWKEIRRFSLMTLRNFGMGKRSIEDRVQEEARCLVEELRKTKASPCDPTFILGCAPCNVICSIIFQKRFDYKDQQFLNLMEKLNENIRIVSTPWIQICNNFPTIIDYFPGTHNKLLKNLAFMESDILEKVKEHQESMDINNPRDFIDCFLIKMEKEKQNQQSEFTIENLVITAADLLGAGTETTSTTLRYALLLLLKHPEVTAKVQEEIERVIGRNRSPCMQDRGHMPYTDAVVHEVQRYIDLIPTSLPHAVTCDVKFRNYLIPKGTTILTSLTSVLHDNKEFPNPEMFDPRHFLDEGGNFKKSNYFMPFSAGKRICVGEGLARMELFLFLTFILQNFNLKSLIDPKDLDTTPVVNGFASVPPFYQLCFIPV

[5] = tested on: corneal neovascularization; conditions: corneal systems; cited from earlier work
lymphocyte chemotaxis = conditions: in part SDF-1 induced chemotaxis; cited from earlier work
[6] = tested on: plasma proteins, mainly albumin and orosomucoid; conditions: cited from earlier work
[7] = tested on: patients with mild to moderate hypertension; conditions: cited from earlier work
ROCK = conditions: cited from earlier work
[8] = cited from earlier work; remark: listed apart in the source

SMILES: CCCc1nc2c(C)cc(-c3nc4ccccc4n3C)cc2n1Cc1ccc(-c2ccccc2C(=O)O)cc1 [Telmisartan, telmisartan]
- incidence of cough ([1]; 6 placebo-controlled trials, identical to placebo): 1.6%
- incidence of back pain ([1]; n = 1455): 3%
- incidence of diarrhea ([1]; n = 1455): 3%
- incidence of pharyngitis ([1]; n = 1455): 1%
- incidence of sinusitis ([1]; n = 1455): 3%
- incidence of upper respiratory tract infection ([1]; n = 1455): 7%
- discontinuation of therapy because of adverse events ([1]; of 1455 patients, placebo-controlled clinical trials): 2.8%
- ratio of protective Tregs:autoreactive Th17 cells [2]: increase the ratio
- effect on colitis (rat colitis; listed as telmisartan): anti-inflammatory effects
- effect on colitis (rat colitis): protective effect against rat colitis
- reduction in AUC by food ([3]; 40 mg tablet): about 6%
- reduction in AUC by food ([3]; 160 mg dose): about 20%
- terminal elimination half-life ([3]; in vivo): approximately 24 hours
- volume of distribution ([3]; in vivo): approximately 500 liters
- incidence of reported poor tolerability [4]: 0.5%
- metabolism by the cytochrome P450 system (cytochrome P450 enzymes): not metabolized
- effects in vitro on cytochrome P450 enzymes (cytochrome P450 enzymes; except CYP2C19): no effects
- inhibition of CYP2C19 (CYP2C19): some inhibition
- neovascularization [5]: prevent neovascularization
- lymphocyte chemotaxis (lymphocyte chemotaxis): abrogate lymphocyte chemotaxis
- bound to plasma proteins [6]: > 99.5%
- DBP reduction from baseline after placebo subtraction ([7]; 20 mg once daily): ~6 mm Hg
- SBP reduction from baseline after placebo subtraction ([7]; 20 mg once daily): 6-8 mm Hg
- DBP reduction from baseline after placebo subtraction ([7]; 40 mg once daily): 6-8 mm Hg
- SBP reduction from baseline after placebo subtraction ([7]; 40 mg once daily): 9-13 mm Hg
- DBP reduction from baseline after placebo subtraction ([7]; 80 mg once daily): 7-8 mm Hg
- SBP reduction from baseline after placebo subtraction ([7]; 80 mg once daily): 12-13 mm Hg
- time to maximal blood pressure reduction ([7]; after initiation of treatment): ~4 weeks
- incidence of symptomatic orthostasis ([7]; after the first dose, all controlled trials): 0.04%
- potency as ROCK inhibitor compared with Y-27632 (ROCK): as potent an inhibitor of ROCK as Y-27632
- amount found in urine ([8]; intravenous administration): 0.91 % of total radioactivity
- administered dose eliminated unchanged in feces via biliary excretion ([8]; intravenous or oral 14C-labeled telmisartan): > 97%
- amount found in urine ([8]; oral administration): 0.49 % of total radioactivity
